Entries after “also recorded” stand apart in the source; their conditions may differ.
Assays:
[1] = tested on: B cell receptor; experiment: Whole blood potency: CD69 on CD19+ B cells after anti-human IgD; type: cell-based; settings: blood from four healthy donors, 2 hours with compound, anti-human IgD 10 μg/mL 18 hours, read-out: EC50, CD69 on gated CD19+ B cells in whole blood
[2] = tested on: GPVI; experiment: GPVI platelet aggregation (convulxin); type: cell-based, human
Protocol: GPVI platelet aggregation was measured for Formula (2) and Formula (10) (ibrutinib). Blood was obtained from untreated humans, and platelets were purified from […] by centrifugation. Cells were resuspended to a final concentration of 350,000/μL in buffer containing 145 mmol/L NaCl, 10 mmol/L HEPES, 0.5 mmol/L Na2HPO4, 5 mmol/L KCl, 2 mmol/L MgCl2, 1 mmol/L CaCl2, and 0.1% glucose, at pH 7.4. Stock solutions of Convulxin (CVX) GPVI were prepared on the day of experimentation and added to platelet suspensions 5 minutes (37° C., 1200 rpm) before the induction of aggregation. Aggregation was assessed with a Chronolog Lumi-Aggregometer (model 540 VS; Chronolog, Havertown, PA) and permitted to proceed for 6 minutes after the addition of agonist. The results are reported as maximum percent change in light transmittance from baseline with platelet buffer used as a reference.
In FIG. 72, the results of CVX-induced (250 ng/mL) human platelet aggregation results before and 15 minutes after administration of the BTK inhibitors to 6 healthy individuals are shown.

[3] = tested on: CD8+ T cells; experiment: CD8+ T cell viability; type: cell-based; settings: anti-TCR and anti-CD28 coated wells, neutral conditions, 4 days
Protocol: Total T cells were plated on anti-TCR and anti-CD28 coated wells in the presence of both BTK inhibitors. Neutral culture conditions were used that will not polarize T cells to a helper lineage. […] Statistical significance was calculated using the Mann Whitney T-test.

[4] = within the tested dose range (through 840 mg); cited from earlier work
[5] = tested on: CD8+ T cells; experiment: Cytotoxic T cell (CTL) assay; type: cell-based; settings: 500 nM, relative to vehicle
Protocol: Without being bound by any theory, CD8^+ T cells have two primary effector functions: (1) produce large amounts of IFN-γ (which activates macrophages), and (2) cytolytic activity. […] The targets were B lymphoblasts from lipopolysaccharide (LPS) treated cultures. The assay was performed by incubating different ratios of effectors:targets for 4 hours.

[6] = tested on: Th17 cells; experiment: Th17 development from enriched CD4+ T cells; type: cell-based; settings: anti-TCRβ plus anti-CD28, skewing cytokines, 4 days
Protocol: (§1) Enriched CD4^+ T cells are plated on 24-well culture dishes that have been precoated 2 hr with 250 μL anti-TCRβ (0.5 μg/mL) plus anti-CD28 (5 μg/mL) at 37° C. in PBS. The cells are then supplemented with media containing BTK inhibitors along with the skewing cytokines as indicated in the following. The Th17 and Treg cultures are grown for 4 days before analysis. The cells are maintained for an additional 3 days with skewing cytokines (Th17; 20 ng/mL IL-6, 0.5 ng/mL TGF-β, 5 μg/mL IL-4, 5 μg/mL IFN-γ and Treg; 0.5 ng/mL TGF-β, 5 μg/mL IL-4, 5 μg/mL IFN-γ) and are supplemented with IL2 as a growth factor.

[7] = tested on: regulatory T cell (Treg); experiment: Treg development from enriched CD4+ T cells; type: cell-based; settings: anti-TCRβ plus anti-CD28, skewing cytokines, 4 days
Protocol: as §1

[8] = tested on: Raji; experiment: ADCC chromium release assay, Raji targets; type: cell-based, human; settings: 1 μM; all rituximab concentrations; healthy donor NK cells
Protocol: All in vitro experiments were performed in triplicate.
ADCC assays were performed as follows. Briefly, target cells (Raji or primary CLL) were labeled by incubation at 37° C. with 100 μCi ^51Cr for 4 hours prior to co-culture with NK cells. Cells were washed, enumerated, and then added in triplicate to prepared 96-well plates containing treated NK cells at an effector:target (E:T) ratio of 25:1. […] Cultures were incubated at 37° C. for 4 hours, and then centrifuged. Supernatants were harvested and ^51Cr release was measured by liquid scintillation counting. All experiments were performed in triplicate.

Row | Compound | EC50 [1] [µM] | effect on GPVI platelet aggregation ([2]; CVX-induced human platelet aggregation) | IC50 ([2]; purified human platelets, convulxin (CVX)) [µM] | effect on CD8+ T cell viability [3] | maximum tolerated dose (MTD) [4] | CD8+ T cell function as measured by % cytotoxicity ([5]; 4 days CTL generation) | CD8+ T cell function as measured by IFN-γ level [5] | effect on Th17 cells / Th17 development [6] | effect on Th17 cells / Th17 development ([6]; listed as ibrutinib) | effect on Treg development [7] | effect on Treg development ([7]; listed as ibrutinib) | cell lysis, Raji [8] [%]
1 | C=CC(=O)Nc1cccc(Nc2nc(Nc3ccc(OCCOC)cc3)ncc2F)c1 [Formula (17), N-(3-((5-fluoro-2-((4-(2-methoxyethoxy)phenyl)amino)pyrimidin-4-yl)amino)phenyl)acrylamide] | 0.121 |  |  |  |  |  |  |  |  |  |  | 
2 | C=CC(=O)N1CCC[C@@H](n2nc(-c3ccc(Oc4ccccc4)cc3)c3c(N)ncnc32)C1 [Formula (10), 1-[(3R)-3-[4-amino-3-(4-phenoxyphenyl)-1H-pyrazolo[3,4-d]pyrimidin-1-yl]piperidin-1-yl]prop-2-en-1-one] | 0.0061 | significantly inhibits | 0.13 | strong, negative effect; also recorded: strongly affects | No maximum tolerated dose (MTD) was apparent | affects | significant loss of function; also recorded: affects | strongly inhibits | profound inhibition | strongly increases | increase | < 20
